The source made the active and inactive calls.
Columns and labels:
[1] = Luminescence Cell-Based Dose Response HTS to Identify Activators of Luciferase Translation or Activity in H4 […] Cells. [Related pubchem assays: 1829 (Project Summary), 1814 (Primary HTS)]; assay type: functional
H4 = experiment: Luminescence Cell-Based Dose Response HTS to Identify Activators of 5'UTR Stem-Loop Driven Prion Protein mRNA Translation in H4 Neuroglioblastoma Cells. [Related pubchem assays: 1829 (Project Summary), 1814 (Primary HTS)]; assay type: functional; details: Homo sapiens
[2] = target: FAD-linked sulfhydryl oxidase ALR (Homo sapiens, UniProt P55789); experiment: inhibitors of human ALR sulfhydryl oxidase, dose response, biochemical, H2O2 detection, luminescence, cherry-pick (AID 493248)
[3] = Luminescence Cell-Based Dose Confirmation HTS to Identify Activators of 5'UTR Stem-Loop Driven Alpha-Synuclein mRNA Translation in H4 Neuroglioblastoma Cells. [Related pubchem assays: 1829 (Project Summary), 1814 (Primary HTS)]; assay type: functional
Genome polyprotein = Genome polyprotein (dengue virus type 2, UniProt P29990); experiment: Dengue-2 NS5 methyltransferase inhibitors, primary screen, biochemical, confirmation dose response (AID 588689); assay type: functional
Large T antigen = Large T antigen (Simian virus 40, UniProt P03070); assay type: functional, Betapolyomavirus macacae;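 further: Confirmatory-stage PubChem screen for compounds that inhibit SV40 T antigen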
Fatty acid synthase [4] = target: T1, Fatty acid synthase (Homo sapiens, UniProt P49327); experiment: FAS thioesterase domain inhibitors, dose response, biochemical, endpoint fluorescence intensity, uHTS hits (AID 624327); assay type: functional;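 further: fluorescence from hydrolysis of an O-methyl fluorescein acyl ester substrate by the enzyme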
Fatty acid synthase [5] = target: T1, Fatty acid synthase; experiment: FAS thioesterase domain inhibitors, dose response, biochemical, kinetic fluorescence intensity (AID 624326); assay type: functional;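 further: rate of fluorescence rise from hydrolysis of a fluorogenic O-methyl fluorescein ester substrate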
Leucine aminopeptidase = target: T2, Leucine aminopeptidase (Plasmodium falciparum 3D7, UniProt Q8IL11); experiment: P. falciparum M17LAP inhibitors, primary screen, biochemical, fluorogenic H-Leu-NHMec substrate, 1536-well (AID 1619); assay type: functional
T2 sequence (Q8IL11 whole entry): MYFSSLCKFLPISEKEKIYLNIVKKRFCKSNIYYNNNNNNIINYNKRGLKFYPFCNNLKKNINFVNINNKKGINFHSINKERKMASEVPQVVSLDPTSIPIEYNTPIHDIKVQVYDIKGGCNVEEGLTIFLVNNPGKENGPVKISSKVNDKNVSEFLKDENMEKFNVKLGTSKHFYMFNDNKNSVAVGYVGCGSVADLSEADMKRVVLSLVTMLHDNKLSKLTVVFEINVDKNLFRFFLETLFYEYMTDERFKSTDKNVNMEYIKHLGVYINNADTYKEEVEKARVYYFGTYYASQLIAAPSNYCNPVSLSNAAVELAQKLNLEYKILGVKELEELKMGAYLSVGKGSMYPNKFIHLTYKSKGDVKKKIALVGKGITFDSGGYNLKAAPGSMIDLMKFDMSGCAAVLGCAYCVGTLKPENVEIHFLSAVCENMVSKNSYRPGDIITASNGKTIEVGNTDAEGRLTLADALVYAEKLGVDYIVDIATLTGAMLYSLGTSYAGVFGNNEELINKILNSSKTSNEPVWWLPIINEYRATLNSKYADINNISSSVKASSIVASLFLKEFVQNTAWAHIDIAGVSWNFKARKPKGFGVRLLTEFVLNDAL

Protein RecA = target: T3, Protein RecA (Mycobacterium tuberculosis, UniProt P9WHJ3); experiment: Fluorescence Cell-Free Homogeneous Dose Retest to Identify Inhibitors of RecA-Intein Splicing Activity. [Related pubchem assays (depositor defined):AID2097, AID2223, AID489010, AID492950]; assay type: functional
T3 sequence (P9WHJ3 whole entry): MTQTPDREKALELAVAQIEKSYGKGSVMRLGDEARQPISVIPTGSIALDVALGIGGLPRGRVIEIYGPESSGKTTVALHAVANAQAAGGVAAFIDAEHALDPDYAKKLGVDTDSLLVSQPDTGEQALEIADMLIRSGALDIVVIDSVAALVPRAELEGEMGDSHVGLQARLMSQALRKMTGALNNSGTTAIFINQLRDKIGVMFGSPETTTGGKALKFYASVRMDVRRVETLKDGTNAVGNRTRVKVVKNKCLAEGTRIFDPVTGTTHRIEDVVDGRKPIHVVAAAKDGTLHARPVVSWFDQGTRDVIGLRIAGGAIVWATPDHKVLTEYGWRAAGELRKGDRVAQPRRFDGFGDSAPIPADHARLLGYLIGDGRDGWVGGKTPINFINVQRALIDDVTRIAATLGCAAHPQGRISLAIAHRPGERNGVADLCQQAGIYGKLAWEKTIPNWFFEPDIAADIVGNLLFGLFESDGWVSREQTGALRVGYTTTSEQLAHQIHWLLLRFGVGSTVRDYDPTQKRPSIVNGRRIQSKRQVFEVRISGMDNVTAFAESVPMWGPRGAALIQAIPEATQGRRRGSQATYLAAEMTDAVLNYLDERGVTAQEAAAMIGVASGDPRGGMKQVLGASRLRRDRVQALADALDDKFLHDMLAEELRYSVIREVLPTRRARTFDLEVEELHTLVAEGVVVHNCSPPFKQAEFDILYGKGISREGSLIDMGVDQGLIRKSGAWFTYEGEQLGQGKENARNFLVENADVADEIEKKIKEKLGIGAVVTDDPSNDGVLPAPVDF

[6] = target: T4, RNA-binding protein pos-1 (Caenorhabditis elegans, UniProt G5EF15); experiment: inhibitors of POS-1/mex-3 RNA binding, dose response, biochemical, fluorescence polarization (AID 1964);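 further: purified POS-1 fused to maltose binding protein made in E. coli; potency of compounds blocking POS-1 binding to fluorescent RNA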
T4 sequence (G5EF15 whole entry): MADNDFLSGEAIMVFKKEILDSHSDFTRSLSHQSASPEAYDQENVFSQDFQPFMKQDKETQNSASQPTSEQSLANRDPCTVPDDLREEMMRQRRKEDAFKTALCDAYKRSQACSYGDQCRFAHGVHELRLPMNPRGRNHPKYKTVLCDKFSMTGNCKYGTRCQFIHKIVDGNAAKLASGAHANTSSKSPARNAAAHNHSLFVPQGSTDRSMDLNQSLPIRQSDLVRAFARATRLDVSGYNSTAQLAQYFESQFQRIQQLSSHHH

[7] = target: T5, Zinc finger protein mex-5 (Caenorhabditis elegans, UniProt Q9XUB2); experiment: MEX-5/TCR-2 RNA interaction inhibitors, dose response, biochemical, C. elegans, fluorescence polarization (AID 1960)
T5 sequence (Q9XUB2 whole entry): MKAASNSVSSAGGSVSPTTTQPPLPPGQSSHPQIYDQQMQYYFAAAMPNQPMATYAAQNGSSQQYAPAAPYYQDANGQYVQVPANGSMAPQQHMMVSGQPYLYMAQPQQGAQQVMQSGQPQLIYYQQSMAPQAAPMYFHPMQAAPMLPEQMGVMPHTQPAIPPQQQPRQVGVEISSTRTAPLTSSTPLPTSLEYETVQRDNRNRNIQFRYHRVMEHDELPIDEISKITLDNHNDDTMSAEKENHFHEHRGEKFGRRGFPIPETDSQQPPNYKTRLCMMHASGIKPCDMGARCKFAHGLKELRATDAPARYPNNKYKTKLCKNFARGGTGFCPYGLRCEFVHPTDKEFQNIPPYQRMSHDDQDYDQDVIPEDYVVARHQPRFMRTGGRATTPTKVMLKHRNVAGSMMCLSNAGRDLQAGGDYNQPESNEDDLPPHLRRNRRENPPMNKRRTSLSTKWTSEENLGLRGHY

[8] = P. falciparum Dd2 growth inhibitors, dose response, SYBR Green, cherry-picked samples (AID 1159567); assay type: functional, cell-based

Chain of FAD-linked sulfhydryl oxidase ALR (P55789 whole entry): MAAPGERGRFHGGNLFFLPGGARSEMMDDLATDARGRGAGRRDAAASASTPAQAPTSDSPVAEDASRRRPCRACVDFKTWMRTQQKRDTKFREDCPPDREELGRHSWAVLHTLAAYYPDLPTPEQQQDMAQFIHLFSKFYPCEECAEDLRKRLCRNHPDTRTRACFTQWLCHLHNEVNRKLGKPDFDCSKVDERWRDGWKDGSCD
Chain of Genome polyprotein (P29990 2492-3391 limits assumed): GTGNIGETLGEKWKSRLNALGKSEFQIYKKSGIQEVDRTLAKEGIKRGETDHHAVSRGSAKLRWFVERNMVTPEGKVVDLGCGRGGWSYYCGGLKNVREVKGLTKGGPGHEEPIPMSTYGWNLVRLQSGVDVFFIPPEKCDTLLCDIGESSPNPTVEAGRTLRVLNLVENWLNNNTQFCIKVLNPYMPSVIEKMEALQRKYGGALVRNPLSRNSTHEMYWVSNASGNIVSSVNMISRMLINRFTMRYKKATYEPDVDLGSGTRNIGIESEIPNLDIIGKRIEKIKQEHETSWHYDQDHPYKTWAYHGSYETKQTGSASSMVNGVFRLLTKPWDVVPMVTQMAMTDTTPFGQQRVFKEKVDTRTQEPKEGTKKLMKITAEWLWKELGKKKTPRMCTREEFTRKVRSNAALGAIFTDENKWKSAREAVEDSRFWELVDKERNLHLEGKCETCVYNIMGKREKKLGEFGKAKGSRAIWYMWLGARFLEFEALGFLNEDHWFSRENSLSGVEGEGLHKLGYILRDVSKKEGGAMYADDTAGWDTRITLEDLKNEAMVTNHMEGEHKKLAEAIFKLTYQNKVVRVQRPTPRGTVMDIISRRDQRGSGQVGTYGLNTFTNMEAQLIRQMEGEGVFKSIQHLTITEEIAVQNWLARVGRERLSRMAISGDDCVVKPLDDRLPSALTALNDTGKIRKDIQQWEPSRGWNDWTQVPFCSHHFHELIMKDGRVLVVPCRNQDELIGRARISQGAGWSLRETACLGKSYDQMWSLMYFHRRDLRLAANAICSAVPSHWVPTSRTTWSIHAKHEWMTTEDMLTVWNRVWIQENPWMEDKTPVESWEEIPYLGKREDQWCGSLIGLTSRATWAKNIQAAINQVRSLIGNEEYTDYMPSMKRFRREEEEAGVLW
T1 sequence (P49327 whole entry, the tested form may be a part): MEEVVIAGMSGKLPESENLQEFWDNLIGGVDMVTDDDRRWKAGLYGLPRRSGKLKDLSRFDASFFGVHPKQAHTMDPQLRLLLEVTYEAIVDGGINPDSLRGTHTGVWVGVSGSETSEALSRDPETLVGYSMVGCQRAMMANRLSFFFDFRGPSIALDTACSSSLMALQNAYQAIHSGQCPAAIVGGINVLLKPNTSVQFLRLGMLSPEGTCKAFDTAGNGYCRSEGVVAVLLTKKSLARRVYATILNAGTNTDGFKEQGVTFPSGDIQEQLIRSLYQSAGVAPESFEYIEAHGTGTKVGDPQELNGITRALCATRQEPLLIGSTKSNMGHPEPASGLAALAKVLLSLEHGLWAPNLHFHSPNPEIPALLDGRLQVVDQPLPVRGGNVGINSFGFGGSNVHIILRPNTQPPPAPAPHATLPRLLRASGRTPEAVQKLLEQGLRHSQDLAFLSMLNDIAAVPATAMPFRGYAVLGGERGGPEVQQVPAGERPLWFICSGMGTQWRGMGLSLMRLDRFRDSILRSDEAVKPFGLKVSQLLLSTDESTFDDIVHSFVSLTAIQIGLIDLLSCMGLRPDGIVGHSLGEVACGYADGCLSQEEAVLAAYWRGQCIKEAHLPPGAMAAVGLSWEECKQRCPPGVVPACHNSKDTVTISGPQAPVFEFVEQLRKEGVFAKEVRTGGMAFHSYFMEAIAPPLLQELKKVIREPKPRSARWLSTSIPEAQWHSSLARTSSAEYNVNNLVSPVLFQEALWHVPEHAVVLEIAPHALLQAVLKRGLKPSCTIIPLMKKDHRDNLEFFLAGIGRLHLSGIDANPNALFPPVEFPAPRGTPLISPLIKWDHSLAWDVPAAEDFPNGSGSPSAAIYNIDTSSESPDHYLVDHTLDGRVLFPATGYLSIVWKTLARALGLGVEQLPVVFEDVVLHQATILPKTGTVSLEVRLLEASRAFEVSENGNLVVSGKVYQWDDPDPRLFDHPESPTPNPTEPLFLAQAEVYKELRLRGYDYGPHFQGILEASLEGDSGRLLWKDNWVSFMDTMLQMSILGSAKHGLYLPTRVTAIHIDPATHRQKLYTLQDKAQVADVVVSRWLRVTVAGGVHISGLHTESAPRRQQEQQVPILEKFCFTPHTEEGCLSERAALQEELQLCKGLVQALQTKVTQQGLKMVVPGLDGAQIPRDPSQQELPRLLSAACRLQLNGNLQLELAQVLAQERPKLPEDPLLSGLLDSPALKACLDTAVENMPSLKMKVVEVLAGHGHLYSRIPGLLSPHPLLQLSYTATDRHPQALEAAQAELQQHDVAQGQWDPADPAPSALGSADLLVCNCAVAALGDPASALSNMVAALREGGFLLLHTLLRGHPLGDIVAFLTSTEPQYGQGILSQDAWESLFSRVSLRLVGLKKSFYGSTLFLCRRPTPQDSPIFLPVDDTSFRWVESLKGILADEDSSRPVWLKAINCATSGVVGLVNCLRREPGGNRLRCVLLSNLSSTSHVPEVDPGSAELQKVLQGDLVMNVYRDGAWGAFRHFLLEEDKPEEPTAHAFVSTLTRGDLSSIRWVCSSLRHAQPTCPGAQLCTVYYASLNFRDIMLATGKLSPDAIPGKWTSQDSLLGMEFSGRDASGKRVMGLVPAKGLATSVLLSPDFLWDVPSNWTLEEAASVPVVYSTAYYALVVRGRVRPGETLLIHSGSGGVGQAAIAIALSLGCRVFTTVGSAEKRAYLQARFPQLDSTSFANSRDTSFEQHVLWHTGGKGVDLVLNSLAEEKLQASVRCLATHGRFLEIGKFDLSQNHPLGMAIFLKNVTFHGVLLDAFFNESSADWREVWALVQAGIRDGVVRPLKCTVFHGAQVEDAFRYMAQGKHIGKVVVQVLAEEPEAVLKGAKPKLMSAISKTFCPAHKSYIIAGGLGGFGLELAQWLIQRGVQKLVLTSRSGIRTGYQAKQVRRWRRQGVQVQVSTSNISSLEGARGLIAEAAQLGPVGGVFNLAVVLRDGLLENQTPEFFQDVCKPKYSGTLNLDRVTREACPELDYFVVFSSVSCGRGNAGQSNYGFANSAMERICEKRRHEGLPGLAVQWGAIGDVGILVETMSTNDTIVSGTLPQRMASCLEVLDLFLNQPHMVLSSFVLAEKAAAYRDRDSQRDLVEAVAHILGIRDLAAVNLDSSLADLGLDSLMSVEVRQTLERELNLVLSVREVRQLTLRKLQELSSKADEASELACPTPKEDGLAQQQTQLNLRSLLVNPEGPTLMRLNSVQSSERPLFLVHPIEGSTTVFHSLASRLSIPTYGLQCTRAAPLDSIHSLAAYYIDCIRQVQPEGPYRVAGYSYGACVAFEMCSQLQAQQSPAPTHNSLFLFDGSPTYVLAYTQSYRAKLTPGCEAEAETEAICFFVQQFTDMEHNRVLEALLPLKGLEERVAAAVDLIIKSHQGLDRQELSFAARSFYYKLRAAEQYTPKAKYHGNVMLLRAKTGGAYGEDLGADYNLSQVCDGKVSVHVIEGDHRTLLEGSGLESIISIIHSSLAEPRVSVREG
Chain of Large T antigen (P03070 whole entry, the tested form may be a part): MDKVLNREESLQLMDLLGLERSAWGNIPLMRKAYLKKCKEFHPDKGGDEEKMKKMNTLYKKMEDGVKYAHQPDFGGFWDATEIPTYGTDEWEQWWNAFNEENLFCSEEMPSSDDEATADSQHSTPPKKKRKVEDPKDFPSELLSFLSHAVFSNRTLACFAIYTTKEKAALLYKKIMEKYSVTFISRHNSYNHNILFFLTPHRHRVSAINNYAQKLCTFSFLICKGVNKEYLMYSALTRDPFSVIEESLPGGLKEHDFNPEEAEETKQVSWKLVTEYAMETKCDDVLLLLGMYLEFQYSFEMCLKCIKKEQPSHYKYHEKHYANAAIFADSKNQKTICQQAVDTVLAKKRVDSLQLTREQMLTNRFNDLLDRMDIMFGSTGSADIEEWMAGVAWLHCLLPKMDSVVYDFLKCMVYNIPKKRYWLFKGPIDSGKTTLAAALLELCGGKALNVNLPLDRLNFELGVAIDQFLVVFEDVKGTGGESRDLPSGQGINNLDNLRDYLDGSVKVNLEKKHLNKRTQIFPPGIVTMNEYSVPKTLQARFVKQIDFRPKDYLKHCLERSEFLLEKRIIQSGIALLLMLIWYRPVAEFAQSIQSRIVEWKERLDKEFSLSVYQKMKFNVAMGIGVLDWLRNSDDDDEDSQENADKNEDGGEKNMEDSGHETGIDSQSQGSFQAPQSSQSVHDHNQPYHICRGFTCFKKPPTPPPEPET

With CC(C)c1ccc(/C=C2\SC(=O)N(CC(=O)NCCCn3ccnc3)C2=O)cc1 the EC50 [1] was 0.418 µM (active), the EC50 (H4) was 18.7 µM (active) and the AC50 [2] was 1.75 µM (active). The EC50 [3] was 29.8 µM (active).

With COc1cccc(/C=C/c2nc(O)nc(O)c2[N+](=O)[O-])c1O the IC50 (Genome polyprotein) was 72.5 µM (active) and the AC50 [2] was 39.1 µM (active).

With CCN(CCCNC(=O)CNC(=O)Cn1cnc2ccccc2c1=O)c1ccccc1 the AC50 [2] was 0.729 µM (active).

In the case of O=C(Nc1ccc(Nc2ccccc2)cc1)N1CCOCC1, the IC50 (Large T antigen) is reported as 7.43 µM (active).

For COC(=O)CC(NC(=O)Nc1ccc(C)cc1)c1cccc([N+](=O)[O-])c1 (centres undefined), the IC50 (Fatty acid synthase [4]) was 11.5 µM (active) and the IC50 (Fatty acid synthase [5]) was 8.7 µM (active).

For O=C1CS/C(=C\S(=O)(=O)c2ccc(Cl)cc2)N1, the IC50 (Leucine aminopeptidase) was 40 µM (active).

For O=C(Nn1c(C2CCCCC2)nc2ccccc2c1=O)c1ccc([N+](=O)[O-])cc1Cl, the IC50 (Fatty acid synthase [4]) was 19.3 µM (active) and the IC50 (Fatty acid synthase [5]) was 18.9 µM (active).

In the case of O=C1CN(C(=O)c2cc([N+](=O)[O-])ccc2Cl)C(c2ccccc2)c2cc(F)ccc2N1 (centres undefined), the IC50 (Fatty acid synthase [4]) is reported as 1.36 µM (active) and the IC50 (Fatty acid synthase [5]) is reported as 1.99 µM (active).

With COc1ccc(C(=O)CCN2CCc3cc(OC)c(OC)cc3C2)cc1 the AC50 [2] was 1.84 µM (active).

With O=C(Cn1cnc2ccccc2c1=O)Nc1ccc2c(c1)CCC2 the IC50 (Leucine aminopeptidase) was 5.23 µM (active).

For COc1ccc(C2CC23N=C(c2ccccc2)OC3=O)cc1 (centres undefined), the IC50 (Fatty acid synthase [4]) was 0.724 µM (active) and the IC50 (Fatty acid synthase [5]) was 0.712 µM (active).

With O=C(Nc1nc(=O)n(C(=O)C2CC2)s1)c1ccccc1 the IC50 (Leucine aminopeptidase) was 40.7 µM (active).

For NNC(=O)c1cccc(COc2ccccc2Br)c1, the AC50 [2] was > 100 µM (inactive).

With CC(C)[C@H](NC(=O)Nc1ccc(Oc2ccccc2)cc1)C(=O)O the EC50 (Protein RecA) was > 380 µM (inactive) and the IC50 (Leucine aminopeptidase) was 15.7 µM (active).

With Cc1nc2cc(N=NN(C)C)ccc2[nH]1 the IC50 (Large T antigen) was > 100 µM (active).

For Nc1[nH]nc2nc(N3CCOCC3)nc(-c3ccccc3)c12, the IC50 (Leucine aminopeptidase) was 6.77 µM (active).

With O=C(O)CC12CC3CC(C1)CC(n1ncc(NCc4ccc5c(c4)OCO5)c(Cl)c1=O)(C3)C2 the IC50 (Leucine aminopeptidase) was 40.6 µM (active).

In the case of O=C(O)CN1C(=O)/C(=C\c2ccccc2OCc2ccc(F)cc2)SC1=S, the IC50 (Genome polyprotein) is reported as 43.2 µM (active).

With Cc1ccc2c(c1)C(=O)C(=O)N2CCCOc1ccccc1C the IC50 (Genome polyprotein) was > 100 µM (active).

In the case of CSc1ccc(Cl)c(C(=O)OCC(=O)NCc2ccco2)c1, the IC50 (Leucine aminopeptidase) is reported as 49.9 µM (active).

With Cc1ccc(S(=O)(=O)c2cc3c(=O)n4ccccc4nc3n(CCc3ccccc3)c2=N)cc1 the EC50 [6] was 111 µM (inconclusive), the EC50 [1] was > 120 µM (not active) and the EC50 (H4) was 0.713 µM (active). For the same compound, the EC50 [3] was 97.9 µM (active) and the EC50 [7] was 3.75 µM (inconclusive).

In the case of Cc1cccc(CSC2=NCCN2C(=O)c2ccco2)c1, the AC50 [2] is reported as 11 µM (active).

For CCOc1ccc(CCNC(=O)COC(=O)c2cc([N+](=O)[O-])ccc2N2CCOCC2)cc1OCC, the IC50 (Fatty acid synthase [4]) was 10.1 µM (active) and the IC50 (Fatty acid synthase [5]) was 9.59 µM (active).

In the case of Cc1cc(Br)ccc1NC(=O)CN(C)C(=O)c1cc([N+](=O)[O-])ccc1N1CCOCC1, the IC50 (Fatty acid synthase [4]) is reported as 8.23 µM (active) and the IC50 (Fatty acid synthase [5]) is reported as 4.65 µM (active).

With CC(=O)N(C(C)=O)N1C(=O)C2C3c4ccccc4C(c4ccccc43)C2C1=O (centres undefined) the IC50 (Genome polyprotein) was 53.8 µM (active).

With N=C(NOC(=O)c1ccco1)c1ccc(Cl)cc1 the AC50 [2] was 13.1 µM (active).

In the case of CN1C[C@H](C(=O)NC2(C)OC3(O)[C@@H]4CCCN4C(=O)[C@H](Cc4ccccc4)N3C2=O)CC2c3cccc4[nH]cc(c34)C[C@H]21 (some centres undefined), the IC50 (Fatty acid synthase [4]) is reported as 10.3 µM (active) and the IC50 (Fatty acid synthase [5]) is reported as 11.8 µM (active).

With Nc1c(Br)cc(Br)c2c1C(=O)c1c(cccc1S(=O)(=O)O)C2=O the IC50 (Genome polyprotein) was 96.1 µM (active).

With Cc1ccc(NC2CCCN(C(=O)Cc3nonc3C)C2)cc1C (centres undefined) the AC50 [2] was 2.54 µM (active).

With COc1ccc(C(=O)NCCNc2ncc(C(F)(F)F)cc2Cl)cc1[N+](=O)[O-] the IC50 (Fatty acid synthase [4]) was 12.7 µM (active) and the IC50 (Fatty acid synthase [5]) was 12 µM (active).

In the case of Cc1cc(-c2ccc(N=Nc3c(S(=O)(=O)O)cc4cc(S(=O)(=O)O)cc(N)c4c3O)c(C)c2)ccc1N=Nc1c(S(=O)(=O)O)cc2cc(S(=O)(=O)O)cc(N)c2c1O, the IC50 (Large T antigen) is reported as 2.38 µM (active).

For Cc1nn(CCOc2ccc(Br)cc2)c(C)c1[N+](=O)[O-], the IC50 (Fatty acid synthase [4]) was 15.9 µM (active) and the IC50 (Fatty acid synthase [5]) was 24.6 µM (inactive).

In the case of CO[C@H]1CN(C)C(=O)c2cc(NC(=O)c3cc(C)on3)ccc2OC[C@H](C)N(C(=O)C2CC2)C[C@H]1C, the AC50 [8] is reported as 4.96 µM (active).

For CCC(=O)N1[C@H](CO)[C@H](c2ccc(C3=CCCCC3)cc2)[C@H]1CNCC1CCC1, the AC50 [8] was 3.46 µM (active).

With CCCC(=O)N1CC2(C1)CN(Cc1ccc(Cl)cc1)[C@@H](CO)c1[nH]c3cc(OC)ccc3c12 the AC50 [8] was 5.26 µM (active).

In the case of CO[C@H]1CN(C)C(=O)c2ccc(NC(=O)Nc3ccc(C(F)(F)F)cc3)cc2OC[C@@H](C)NC[C@@H]1C, the AC50 [8] is reported as 9.45 µM (active).

Source: ChEMBL document CHEMBL1201862, “PubChem BioAssay data set” (2004)
